# Reference: the NIST ThermoML archive (doi:10.1016/j.fluid.2013.07.054)
# Numbers after ± are expanded uncertainties.
# Settings: 298.15 K; 101 kPa; Liquid; Vibrating tube method
row,SMILES,mass density [kg/m3]
1,CC(=O)C(C)C [3-methyl-2-butanone],800.63 ± 0.11
2,CC(=O)CC(C)C [4-methylpentan-2-one],796.23 ± 0.11
3,CCC(C)=O [butanone],800.3 ± 0.11
